Laboratory results as given in PMC6143625, “A high throughput screen for next-generation leads targeting malaria parasite transmission” (Nature Communications, 2018).

How the values were obtained:
[1] = test system: HepG2 human cells; set-up: method as in http://dx.doi.org/10.6019/CHEMBL3507680; conditions: ref http://dx.doi.org/10.6019/CHEMBL3507680; cited from earlier work
[2] = test system: P. falciparum 3D7 asexual blood stages; test: Whole-cell time extended asexual growth assay (pLDH); type: cell-based; conditions: Plasmodium falciparum, 72 h; for IC50: dose response retest, read-out: IC50 (µM) Asex stages; for inhibition at 2 µM: primary screen, read-out: %Inh Asex stages @2uM
Description: Asexual activity was assayed via Plasmodium lactate dehydrogenase activity (pLDH), a surrogate of asexual parasite growth. […] 2 µM artesunate and DMSO were used as the positive and negative controls, respectively. […] After plate mixing, NBT reduction was measured by absorbance at 650 nm using Envision (Perkin Elmer).

SMILES	IC50 [2]	%Inh HepG2 @10uM [1]	inhibition at 2 µM [2]
Cc1nn(C)cc1C1=NS(=O)(=O)N(C)C(C(=O)Nc2ccc(Br)cc2)=C1 [DDD01058697]	0.366 µM	0.0552%	98%
Cl.Fc1ccc(F)c(CN2CCC(c3cc4ncccc4cn3)CC2)c1 [DDD01058752]	1.79 µM	4.59%	62.6%
Cl.Fc1cccc(CN2CCC(c3cc4ncccc4cn3)CC2)c1F [DDD01058754]	1.64 µM	4.71%	33.2%
Cc1cc(CN2CCc3nc(-c4ccncc4)nc(O)c3CC2)c(C)s1 [DDD01058881]	2.2 µM	-7.80%	77.5%
CCN1c2ccc(-c3cncn3CC(=O)NC(C)(C)C)cc2CC1C.Cl (stereo not drawn) [DDD01059258]	2.95 µM	-7.81%	82.1%
c1ccc(-c2cc(CNCCN3CCCC3)c3nnnn3c2)cc1 [DDD01059599]	1.55 µM	-3.47%	79.4%
Clc1ccc(C2(CNC3=NCCN3)CC2)cc1.I [DDD01067441]	1.95 µM	10.02%	40.6%
COc1cc2nc(NCc3ccc(C)nc3)nc(N)c2cc1OC [DDD01069328]	2.24 µM	-5.25%	58%
Clc1cccc(CNC2CCN(CCc3ccncc3)CC2)c1 [DDD01069722]	2.28 µM	0.53%	57.5%
CCC(=O)NCC(c1ccc(SC)cc1)N1CCc2sccc2C1 (stereo not drawn) [DDD01071943]	2.03 µM	-8.32%	64.5%
CCOCC1CCN(C(=O)Nc2ccc3c(c2)CCCN3C)C1 (stereo not drawn) [DDD01073381]	1.9 µM	-10.40%	31.9%
O=C(c1ccccc1)C1CCN(Cc2cc3c(cc2O)CCC3)CC1 [DDD01073482]	1.75 µM	33.89%	48.9%
CC1CCN(c2ccnc3ccc(Br)cc23)CC1 [DDD01075547]	9.1 µM	2.00%	35.9%
Cc1cnc(NCc2ccc(S(=O)(=O)N(C)C(C)C)cc2)nc1C [DDD01077176]	3.18 µM	-11.10%	42.2%
N#Cc1c(Cl)nsc1NCCCN1C(=O)COc2ccccc21 [DDD01077687]	3.47 µM	8.75%	39.1%
NC(=O)CN1CCC(Nc2ccnc3ccc(Cl)cc23)CC1 [DDD01078433]	1.24 µM	-1.05%	82%
Cc1cc(=O)n2nc(Oc3ccc(Cl)c(C)c3)sc2n1 [DDD01078480]	3.34 µM	-6.83%	42%
COc1c(C)cnc(CN(C)C2CCCCC2)c1C [DDD01078822]	5.74 µM	8.25%	35.1%
CCOCc1ccc(CNC2=NCCCN2)cc1.I [DDD01079448]	1.58 µM	-2.49%	40.1%

SMILES	IC50 [2]	%Inh HepG2 @10uM [1]	inhibition at 2 µM [2]
Cc1ccc(CNC2CCN(CCc3ccncc3)CC2)cc1C [DDD01080013]	1.81 µM	1.32%	77%
CCS(=O)(=O)N1CCC2(CC1)CN(CC1CCOC1)c1ccccc12.O=C(O)C(F)(F)F (stereo not drawn) [DDD01082339]	7.55 µM	25.95%	46%
O=C(O)C(F)(F)F.c1ccc(CN2CCC3(CC2)CC(Nc2nccs2)CO3)nc1 (stereo not drawn) [DDD01083119]	7.18 µM	-8.19%	37.5%
CC(C)N(C)Cc1cnc2n1CCN(C(=O)NC1CCCC1)C2.O=C(O)C(F)(F)F [DDD01085014]	4.32 µM	-9.47%	42.5%
O=C(NCCCN1CCOCC1)c1ccn(-c2ccc3ccccn23)n1.O=C(O)C(F)(F)F [DDD01085308]	2.53 µM	23.54%	50.4%
c1cc(-c2n[nH]cc2-c2ccnc(N3CCCC3)n2)ccn1 [DDD01235828]	0.201 µM	-2.36%	46.4%
COc1ccc2[nH]cc(-c3ccnc(NC4CCCC4)n3)c2c1 [DDD01235847]	3.02 µM	-0.78%	33.7%
CNc1nc(C)cc(NCc2cc(C)cc3c(C)c(C)[nH]c23)n1 [DDD01244907]	1.3 µM	98.78%	91.8%
NCC1Cc2cc(-c3nccc(N4CCC(O)CC4)n3)cc(Cl)c2O1 (stereo not drawn) [DDD01245918]	4.85 µM	5.41%	72.6%
O=C(O)C1CC2(CCN(c3nccc4ccccc34)CC2)CN1 (stereo not drawn) [DDD01246093]	3.51 µM	9.49%	35.8%
CCn1cc(CN2CCN(Cc3cc(C)cc(C)c3)C(=O)C2)cc1C#N [DDD01246382]	3.31 µM	15.63%	37.3%
CCCn1ncc(-c2ccnc(NC3CC(C)(C)NC(C)(C)C3)n2)c1C [DDD01246448]	4.53 µM	80.08%	41.5%
CC1(c2ccccc2)CCCN(Cc2cncn2C2CCCC2)C1 (stereo not drawn) [DDD01246491]	2.95 µM	-13.60%	39.7%
Cc1ccc2[nH]c(-c3cn(C4CCNCC4)nn3)nc2c1C [DDD01246711]	2.13 µM	-3.44%	63.9%
CCN1CCN(C[C@@H]2CN(c3ncc(Cl)cc3F)C[C@@H]2CO)CC1 [DDD01246828]	1.4 µM	-10.90%	82.5%
CC(C)CN1CCCC1c1ccc(C(=O)Nc2cccnc2)s1 (stereo not drawn) [DDD01247321]	3.35 µM	0.07%	34.5%
CCn1cc(CN2CCN(Cc3cccc(OC)c3)C(=O)C2)cc1C#N [DDD01247460]	1.46 µM	-1.17%	76.2%
CNc1cc(C)nc(NCc2cc(C)cc3c(C)c(C)[nH]c23)n1 [DDD01248198]	1.79 µM	67.15%	69.2%
Cc1cccnc1[C@H](C)Nc1nc(-c2cccnc2)nc2c1CNC2 [DDD01248607]	3.44 µM	-8.07%	50%

The next lines start with results.

IC50 [2]	SMILES	%Inh HepG2 @10uM [1]	inhibition at 2 µM [2]
0.853 µM	COc1ccc(C)cc1CN1CCC(c2cc3ncccc3cn2)CC1.Cl [DDD01058767]	105.03%	97.7%
1.29 µM	CN(C)CCN(C)C(=O)Cn1cccc2cc(-c3ccc(F)cc3)nc1-2 [DDD01059044]	4.32%	97%
8.49 µM	COc1ccc(F)c(CN(CCCn2ccnc2)Cc2ccc(C)s2)c1.O=C(O)CC(O)(CC(=O)O)C(=O)O [DDD01059675]	45.48%	33.8%
2.03 µM	CN(CCCOc1ccccc1)C(=O)c1csc(-c2nnc[nH]2)n1 [DDD01061692]	-5.84%	34.8%
2.4 µM	COc1cc(C)sc1C(=O)NCCNc1ccccc1 [DDD01067535]	11.25%	41.9%
2.5 µM	COc1ccccc1CN(C)C(=O)CN1CC(n2nc(C)cc2C)C1 [DDD01071519]	-2.12%	44.4%
2.68 µM	COc1ccc(C(=O)NCCCOC(C)c2ccccc2)c(OC)c1 (stereo not drawn) [DDD01071935]	-11.10%	41.6%
7.83 µM	CN(C)c1ccnc(N2CCC(NCCOc3ccccc3)CC2)n1 [DDD01072965]	19.60%	30.8%
4.85 µM	COc1cccc(CNc2cc(C)nc(-c3ccncc3)n2)c1OC [DDD01073393]	-6.44%	40.5%
6.7 µM	COc1ccc(Oc2cc(CN)ccn2)cc1 [DDD01078308]	2.32%	30.1%
2.29 µM	COc1cccc(CN(C)C(=O)CN2CC(n3nc(C)cc3C)C2)c1 [DDD01080719]	-1.82%	49.9%
1.16 µM	CCCn1cc(-c2ccnc(NC3CCc4ccccc4C3)n2)c(C)n1 (stereo not drawn) [DDD01243522]	19.33%	31.2%
3.87 µM	COc1cccc(CN2CC(=O)N(c3ccccc3C)CC2C)c1OC (stereo not drawn) [DDD01244654]	-6.78%	51.8%
1.56 µM	CC1CCCCN1C(=O)c1coc(COc2cccc3cnccc23)n1 (stereo not drawn) [DDD01245028]	-6.78%	66.8%
2.25 µM	COc1ccnc(CN2CCCC(CCc3ccc(F)cc3)C2)c1OC (stereo not drawn) [DDD01246654]	2.04%	51%
8.09 µM	N#Cc1cccc(N2CCCC(CO)(CCOc3ccccc3)C2)n1 (stereo not drawn) [DDD01247086]	8.55%	32%
6.32 µM	COc1ccccc1OCCCc1cccc(C#N)n1 [DDD01247630]	-1.85%	36%
1.91 µM	COc1cccc(CN(C)Cc2[nH]c3ccccc3c2C)c1O [DDD01247848]	1.38%	91.2%
9.68 µM	CC(C)c1cc(CN(C)C(=O)C(C)N2CCc3ccccc3C2)no1 (stereo not drawn) [DDD01248554]	34.35%	36%
